# Results as given in US20110015080A1, “Solution-based methods for RNA expression profiling” (MASSACHUSETTS INSTITUTE OF TECHNOLOGY, priority 2005, published 2011).
# Where “and” joins values, the source holds several entries; their conditions need not be identical. Equal entries are not always repeated.
# Test system: HL60 (human promyelocytic leukemia) cells
# Test: LMA-FlexMAP bead-based gene expression signature analysis of total RNA from HL60 cells treated with tretinoin or DMSO (ninety transcripts); on FlexMap GAPDH M LUA#94: test concentration or dose not given here; on FlexMap NM 000147 LUA#29: test concentration or dose not given here; on FlexMap NM 001948 LUA#84: test concentration or dose not given here
# [1] = Experiment 2, Tretinoin, replicate columns
smiles,measurement,setting,value
"CC1=C(/C=C/C(C)=C/C=C/C(C)=C/C(=O)O)C(C)(C)CCC1 [tretinoin, all-trans-retinoic acid]",NM_005952 LUA#66 FlexMAP signal,"Experiment 1, tretinoin-treated HL60, transcript NM_005952, replicate columns",172 and 212 and 149 and 198.5 and 72.5 and 189 and 203 and 95.5 and 188.5 and 182
same,NM_005980 LUA#73 FlexMAP signal,"Experiment 1, tretinoin-treated HL60, transcript NM_005980, replicate columns",145 and 173 and 163 (2×) and 57 and 142 and 74 and 149.5 and 151
same,NM_006019 LUA#35 FlexMAP signal,"Experiment 1, tretinoin-treated HL60, transcript NM_006019, replicate columns",746 and 867 and 569 and 818 and 186 and 828 and 762 and 287 and 767 and 734.5
same,NM_006138 LUA#56 FlexMAP signal,"Experiment 1, tretinoin-treated HL60, transcript NM_006138, replicate columns",114 and 130 and 93 and 124 and 51.5 and 113.5 and 115.5 and 66 and 122 and 114.5
same,NM_006432 LUA#27 FlexMAP signal,"Experiment 1, tretinoin-treated HL60, transcript NM_006432, replicate columns",1294.5 and 1495 and 1081.5 and 1409.5 and 397 and 1446 and 1405 and 625 and 1345 and 1203
same,NM_006452 LUA#71 FlexMAP signal,"Experiment 1, tretinoin-treated HL60, transcript NM_006452, replicate columns",78.5 and 76 and 67.5 and 79.5 and 41 and 75 and 68 and 53.5 and 82 and 74
same,NM_006985 LUA#58 FlexMAP signal,"Experiment 1, tretinoin-treated HL60, transcript NM_006985, replicate columns",52 and 54 and 47 and 59 and 37 and 55 and 56 and 40 and 57 and 51
same,NM_007282 LUA#16 FlexMAP signal,"Experiment 1, tretinoin-treated HL60, transcript NM_007282, replicate columns",60.5 and 60 and 39 and 64.5 (2×) and 42.5 and 64 and 62 and 56 and 61
same,NM_014333 LUA#26 FlexMAP signal,"Experiment 1, tretinoin-treated HL60, transcript NM_014333, replicate columns",472 and 584 and 366.5 and 531 and 134 and 492 and 530 and 197.5 and 497 and 459.5
same,NM_014366 LUA#61 FlexMAP signal,"Experiment 1, tretinoin-treated HL60, transcript NM_014366, replicate columns",213 and 263 and 163 and 235 (2×) and 66 and 231 (2×) and 97 and 209.5
same,NM_014573 LUA#70 FlexMAP signal,"Experiment 1, tretinoin-treated HL60, transcript NM_014573, replicate columns",135 and 155 (2×) and 99 and 153.5 and 61 and 138 and 79 and 138.5 and 144.5
same,NM_015201 LUA#57 FlexMAP signal,"Experiment 1, tretinoin-treated HL60, transcript NM_015201, replicate columns",181 and 226.5 and 139 and 222 and 64 and 208 and 203 and 87 and 194.5 and 183
same,NM_018115 LUA#63 FlexMAP signal,"Experiment 1, tretinoin-treated HL60, transcript NM_018115, replicate columns",506.5 and 644 and 552.5 and 735.5 and 143 and 690 and 601 and 227.5 and 582 and 418
same,NM_018164 LUA#69 FlexMAP signal,"Experiment 1, tretinoin-treated HL60, transcript NM_018164, replicate columns",140.5 and 177 and 131 and 165 and 57 and 152.5 and 155 and 75 and 143 and 142
same,NM_018256 LUA#83 FlexMAP signal,"Experiment 1, tretinoin-treated HL60, transcript NM_018256, replicate columns",1557 and 747 and 897 and 726 and 388 and 903 and 998 and 589 and 1256.5 and 1208
same,NM_018890 LUA#33 FlexMAP signal,"Experiment 1, tretinoin-treated HL60, transcript NM_018890, replicate columns",705 and 824 and 537.5 and 758 and 187.5 and 788 and 743.5 and 293.5 and 719 and 712
same,NM_019058 LUA#75 FlexMAP signal,"Experiment 1, tretinoin-treated HL60, transcript NM_019058, replicate columns",143.5 and 158 (2×) and 143 and 164 and 59 and 152 and 79.5 and 148.5 and 129
same,NM_020117 LUA#78 FlexMAP signal,"Experiment 1, tretinoin-treated HL60, transcript NM_020117, replicate columns",527 and 607 and 408 and 584.5 and 145 and 554 and 564 and 230 and 529.5 and 519
same,NM_021103 LUA#41 FlexMAP signal,"Experiment 1, tretinoin-treated HL60, transcript NM_021103, replicate columns",2412 and 2719 and 2257.5 and 2689 and 925 and 2668.5 and 2611 and 1370 and 2590 and 2454
same,NM_021203 LUA#80 FlexMAP signal,"Experiment 1, tretinoin-treated HL60, transcript NM_021203, replicate columns",547 and 654 and 442.5 and 642.5 and 151 and 578.5 and 611 and 228.5 and 563 and 546
same,NM_021974 LUA#64 FlexMAP signal,"Experiment 1, tretinoin-treated HL60, transcript NM_021974, replicate columns",1003 and 1158 and 872 and 1105 and 293.5 and 1102.5 and 1052.5 and 477.5 and 1068 and 955
same,NM_024045 LUA#65 FlexMAP signal,"Experiment 1, tretinoin-treated HL60, transcript NM_024045, replicate columns",124 and 146 and 100 and 145 and 52 and 141 and 142 and 69 and 133 and 119
same,TFRC LUA#92 FlexMAP signal,"Experiment 1, tretinoin-treated HL60, transcript TFRC, replicate columns",250 and 305 and 191.5 and 285 and 81.5 and 280.5 and 289 and 109 and 272 and 251.5
same,FlexMap ACTB LUA#91,[1],2807 and 2986 and 107 and 2939 and 1020 and 2820 and 2870 and 2791 and 2727 and 2873.5
same,FlexMap GAPDH_3 LUA#95,[1],3075 and 2896 and 139.5 and 2850 and 1137 and 3025 and 3066 and 2936 and 2973 and 3162.5
same,FlexMap GAPDH_5 LUA#93,[1],1888 and 1977.5 and 72 and 1965.5 and 509 and 1847 and 2001 and 1834.5 and 1691 and 1994
same,FlexMap GAPDH_M LUA#94,[1],1814 and 1595.5 and 73 and 1871 and 514 and 1911 and 2010.5 and 1693.5 and 1762.5 and 1932.5
same,FlexMap NM_000147 LUA#29,[1],1102 and 1135 and 36 and 1106 and 236 and 1132 and 1122.5 and 1051 and 1086 and 1171
same,FlexMap NM_000211 LUA#39,[1],1639.5 and 1219 and 89 and 1828 and 470 and 1717 and 1734.5 and 1593.5 and 1570 and 1763
same,FlexMap NM_000250 LUA#87,[1],236 and 228 and 39 and 249 and 70 and 246 and 243 and 232 and 239.5 and 253
same,FlexMap NM_000414 LUA#22,[1],564.5 and 544 and 34 and 547 and 115.5 and 596 and 561.5 and 550.5 and 543 and 598.5
same,FlexMap NM_000433 LUA#28,[1],786.5 and 574 and 34 and 810 and 158 and 860 and 842 and 753 and 724 and 823
same,FlexMap NM_000584 LUA#30,[1],2339.5 and 2517.5 and 72 and 2315 and 665 and 2389 and 2341.5 and 2247 and 2269 and 2450
same,FlexMap NM_000884 LUA#81,[1],963.5 and 841 and 61 and 951 and 259.5 and 1004 and 988 and 925 and 916 and 1010
same,FlexMap NM_001034 LUA#67,[1],260 and 246 and 32.5 and 280 and 65 and 281 and 253 and 271 and 252 and 276
same,FlexMap NM_001101 LUA#34,[1],3017 and 2733 and 211 and 3046 and 1578 and 3029 and 3195 and 2934 and 2997 and 3139.5
same,FlexMap NM_001469 LUA#79,[1],1315 and 1107 and 73 and 1230 and 333.5 and 1437 and 1331.5 and 1308 and 1281.5 and 1360
same,FlexMap NM_001498 LUA#18,[1],494.5 and 511 and 32 and 521 and 110.5 and 507.5 and 513 and 441.5 and 467 and 531.5
same,FlexMap NM_001684 LUA#23,[1],71 and 75 and 30 and 98 and 38.5 and 66 and 79 and 68 and 77.5 and 83
same,FlexMap NM_001948 LUA#84,[1],72 and 70 and 33 and 79.5 and 40 and 68 (2×) and 70.5 and 62 and 81
same,FlexMap NM_002166 LUA#25,[1],227 and 254.5 and 30 and 237 and 60 and 230 and 240 and 221 and 242
same,FlexMap NM_002467 LUA#90,[1],741 and 823 (2×) and 762.5 and 205 and 792 and 798 and 776 and 759
same,FlexMap NM_002468 LUA#40,[1],531.5 and 584 and 35 and 511 and 135 and 556.5 and 549 and 498 and 494 and 589.5
same,FlexMap NM_002539 LUA#74,[1],416 and 397 and 33 and 437 and 89 and 423 and 409 and 392 and 368 and 441
same,FlexMap NM_002624 LUA#36,[1],1647.5 and 1643 and 71 and 1714 and 670 and 1664 and 1757 and 1580.5 and 1616 and 1772.5
same,FlexMap NM_002664 LUA#38,[1],2701.5 and 2723 and 91 and 2815 and 1002 and 2840.5 and 2805 and 2642 and 2652 and 2875
same,FlexMap NM_002970 LUA#42,[1],1716.5 and 1563 and 42 and 1624 and 435.5 and 1759.5 and 1743 and 1655.5 and 1575 and 1823
same,FlexMap NM_002982 LUA#45,[1],3697 and 3859 and 294 and 3328 and 2094 and 3522 and 3632 and 3562 and 3485 and 3768
